Source: PubChem BioAssay (NCI)
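Compound exposure: 48 hours, 5 concentrations, 96-well plates. Here, GI50 denotes the concentration required for 50% inhibition of growth. Definition used: TGI = concentration required for complete inhibition of growth.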

Tests used:
Assay in all cases: NCI-60 cell line screen, 48 h
NCI-H460 lung = test system: NCI-H460 lung
NCI-H226 lung = test system: NCI-H226 lung
SK-OV-3 ovarian = test system: SK-OV-3 ovarian
SNB-75 CNS = test system: SNB-75 CNS
SNB-19 CNS = test system: SNB-19 CNS
MDA-MB-231 breast = test system: MDA-MB-231 breast
MDA-MB-435 = test system: MDA-MB-435
NCI/ADR-RES ovarian = test system: NCI/ADR-RES ovarian
OVCAR-8 ovarian = test system: OVCAR-8 ovarian
TK-10 renal = test system: TK-10 renal
CCRF-CEM leukemia = test system: CCRF-CEM leukemia
HL-60(TB) leukemia = test system: HL-60(TB) leukemia
MALME-3M melanoma = test system: MALME-3M melanoma
786-0 renal = test system: 786-0 renal
HCC-2998 colon = test system: HCC-2998 colon
RXF 393 renal = test system: RXF 393 renal
OVCAR-4 ovarian = test system: OVCAR-4 ovarian
MCF7 breast = test system: MCF7 breast
A498 renal = test system: A498 renal
M14 melanoma = test system: M14 melanoma
DU-145 prostate = test system: DU-145 prostate
SF-539 CNS = test system: SF-539 CNS
LOX IMVI melanoma = test system: LOX IMVI melanoma
HCT-116 colon = test system: HCT-116 colon
SK-MEL-28 melanoma = test system: SK-MEL-28 melanoma
NCI-H23 lung = test system: NCI-H23 lung
BT-549 breast = test system: BT-549 breast
U251 CNS = test system: U251 CNS
COLO 205 colon = test system: COLO 205 colon
UO-31 renal = test system: UO-31 renal
SF-268 CNS = test system: SF-268 CNS
SK-MEL-5 melanoma = test system: SK-MEL-5 melanoma
KM12 colon = test system: KM12 colon
OVCAR-3 ovarian = test system: OVCAR-3 ovarian
HS 578T breast = test system: HS 578T breast
CAKI-1 renal = test system: CAKI-1 renal
HOP-92 NSCLC = test system: HOP-92 NSCLC
MOLT-4 leukemia = test system: MOLT-4 leukemia
T-47D breast = test system: T-47D breast
PC-3 prostate = test system: PC-3 prostate
UACC-62 melanoma = test system: UACC-62 melanoma
ACHN renal = test system: ACHN renal
A549 NSCLC = test system: A549 NSCLC
UACC-257 melanoma = test system: UACC-257 melanoma
SK-MEL-2 melanoma = test system: SK-MEL-2 melanoma
SN12C renal = test system: SN12C renal
RPMI-8226 leukemia = test system: RPMI-8226 leukemia
K-562 leukemia = test system: K-562 leukemia
HT29 colon = test system: HT29 colon
NCI-H522 lung = test system: NCI-H522 lung
IGROV1 ovarian = test system: IGROV1 ovarian
HCT-15 colon = test system: HCT-15 colon
HOP-62 NSCLC = test system: HOP-62 NSCLC
SW-620 colon = test system: SW-620 colon
OVCAR-5 ovarian = test system: OVCAR-5 ovarian

In the case of `O=c1c2ccc3cccc4c(=O)c5ccc6cccc1c6c5-c2c34`, the GI50 (NCI-H460 lung) is reported as > 50 µM, the TGI (NCI-H460 lung) is reported as > 50 µM and the GI50 (NCI-H226 lung) is reported as > 50 µM. The TGI (NCI-H226 lung) was > 50 µM, the GI50 (SK-OV-3 ovarian) was > 50 µM and the TGI (SK-OV-3 ovarian) was > 50 µM. The GI50 (SNB-75 CNS) was > 50 µM, the TGI (SNB-75 CNS) was > 50 µM and the GI50 (SNB-19 CNS) was > 50 µM. The TGI (SNB-19 CNS) was > 50 µM, the GI50 (MDA-MB-231 breast) was > 50 µM and the TGI (MDA-MB-231 breast) was > 50 µM. The GI50 (MDA-MB-435) was > 50 µM, the TGI (MDA-MB-435) was > 50 µM and the GI50 (NCI/ADR-RES ovarian) was > 50 µM. For the same compound, the TGI (NCI/ADR-RES ovarian) was > 50 µM, the GI50 (OVCAR-8 ovarian) was > 50 µM and the TGI (OVCAR-8 ovarian) was > 50 µM. The GI50 (TK-10 renal) was > 50 µM, the TGI (TK-10 renal) was > 50 µM and the GI50 (CCRF-CEM leukemia) was > 50 µM. The TGI (CCRF-CEM leukemia) was > 50 µM, the GI50 (HL-60(TB) leukemia) was > 50 µM and the TGI (HL-60(TB) leukemia) was > 50 µM. The GI50 (MALME-3M melanoma) was > 50 µM, the TGI (MALME-3M melanoma) was > 50 µM and the GI50 (786-0 renal) was > 50 µM. For the same compound, the TGI (786-0 renal) was > 50 µM, the GI50 (HCC-2998 colon) was > 50 µM and the TGI (HCC-2998 colon) was > 50 µM. The GI50 (RXF 393 renal) was > 50 µM, the TGI (RXF 393 renal) was > 50 µM and the GI50 (OVCAR-4 ovarian) was > 50 µM. For the same compound, the TGI (OVCAR-4 ovarian) was > 50 µM, the GI50 (MCF7 breast) was > 50 µM and the TGI (MCF7 breast) was > 50 µM. For the same compound, the GI50 (A498 renal) was > 50 µM, the TGI (A498 renal) was > 50 µM and the GI50 (M14 melanoma) was > 50 µM. For the same compound, the TGI (M14 melanoma) was > 50 µM, the GI50 (DU-145 prostate) was > 50 µM and the TGI (DU-145 prostate) was > 50 µM. For the same compound, the GI50 (SF-539 CNS) was > 50 µM, the TGI (SF-539 CNS) was > 50 µM and the GI50 (LOX IMVI melanoma) was > 50 µM. The TGI (LOX IMVI melanoma) was > 50 µM, the GI50 (HCT-116 colon) was > 50 µM and the TGI (HCT-116 colon) was > 50 µM. For the same compound, the GI50 (SK-MEL-28 melanoma) was > 50 µM, the TGI (SK-MEL-28 melanoma) was > 50 µM and the GI50 (NCI-H23 lung) was > 50 µM. The TGI (NCI-H23 lung) was > 50 µM, the GI50 (BT-549 breast) was > 50 µM and the TGI (BT-549 breast) was > 50 µM. The GI50 (U251 CNS) was > 50 µM, the TGI (U251 CNS) was > 50 µM and the GI50 (COLO 205 colon) was > 50 µM. The TGI (COLO 205 colon) was > 50 µM, the GI50 (UO-31 renal) was > 50 µM and the TGI (UO-31 renal) was > 50 µM. The GI50 (SF-268 CNS) was > 50 µM, the TGI (SF-268 CNS) was > 50 µM and the GI50 (SK-MEL-5 melanoma) was > 50 µM. For the same compound, the TGI (SK-MEL-5 melanoma) was > 50 µM, the GI50 (KM12 colon) was > 50 µM and the TGI (KM12 colon) was > 50 µM. For the same compound, the GI50 (OVCAR-3 ovarian) was > 50 µM, the TGI (OVCAR-3 ovarian) was > 50 µM and the GI50 (HS 578T breast) was > 50 µM. The TGI (HS 578T breast) was > 50 µM, the GI50 (CAKI-1 renal) was > 50 µM and the TGI (CAKI-1 renal) was > 50 µM. For the same compound, the GI50 (HOP-92 NSCLC) was > 50 µM, the TGI (HOP-92 NSCLC) was > 50 µM and the GI50 (MOLT-4 leukemia) was > 50 µM. For the same compound, the TGI (MOLT-4 leukemia) was > 50 µM, the GI50 (T-47D breast) was > 50 µM and the TGI (T-47D breast) was > 50 µM. The GI50 (PC-3 prostate) was > 50 µM, the TGI (PC-3 prostate) was > 50 µM and the GI50 (UACC-62 melanoma) was > 50 µM. The TGI (UACC-62 melanoma) was > 50 µM, the GI50 (ACHN renal) was > 50 µM and the TGI (ACHN renal) was > 50 µM. For the same compound, the GI50 (A549 NSCLC) was > 50 µM, the TGI (A549 NSCLC) was > 50 µM and the GI50 (UACC-257 melanoma) was > 50 µM. The TGI (UACC-257 melanoma) was > 50 µM, the GI50 (SK-MEL-2 melanoma) was > 50 µM and the TGI (SK-MEL-2 melanoma) was > 50 µM. The GI50 (SN12C renal) was > 50 µM, the TGI (SN12C renal) was > 50 µM and the GI50 (RPMI-8226 leukemia) was > 50 µM. For the same compound, the TGI (RPMI-8226 leukemia) was > 50 µM, the GI50 (K-562 leukemia) was > 50 µM and the TGI (K-562 leukemia) was > 50 µM. For the same compound, the GI50 (HT29 colon) was > 50 µM, the TGI (HT29 colon) was > 50 µM and the GI50 (NCI-H522 lung) was > 50 µM. The TGI (NCI-H522 lung) was > 50 µM, the GI50 (IGROV1 ovarian) was > 50 µM and the TGI (IGROV1 ovarian) was > 50 µM. For the same compound, the GI50 (HCT-15 colon) was > 50 µM, the TGI (HCT-15 colon) was > 50 µM and the GI50 (HOP-62 NSCLC) was > 50 µM. For the same compound, the TGI (HOP-62 NSCLC) was > 50 µM, the GI50 (SW-620 colon) was > 50 µM and the TGI (SW-620 colon) was > 50 µM. The GI50 (OVCAR-5 ovarian) was > 50 µM and the TGI (OVCAR-5 ovarian) was > 50 µM.
